Source: article PMC7098565 (PLoS ONE, 2020)
Several values for one entry are separate records, joined by “and”; a condition that tells them apart may be missing. Identical values can stand only once. Like-named read-outs stand apart in the source and are kept apart here.

Tests used:
[1] = target: PD-1 and PD-L1 binding; design: method as in PMID 27083005; conditions: HTRF binding assay; cited from earlier work
[2] = test system: T lymphocytes in tumors; assay: Flow cytometry of T lymphocytes in tumors from melanoma-bearing mice; assay type: in vivo; conditions: for % Treg of CD4^+ / % CD3^+ of lymphocyte / % CD4^+ of CD3^+ / % CD8^+ of CD3^+ / % CD8^+IFN-γ of CD3D^+CD8^+: tumor, day 20, single mice; for % Treg of CD4^+: Treg = CD4+CD25+CD127low/-
[3] = test system: Human CD3+ cells; assay: Cytotoxicity to human CD3+ cells, CellTiter-Glo (CTG) assay; assay type: cell-based; conditions: 72 h, aCD3/aCD28 1 μg/mL, mean ± S.D (n = 3)
Protocol: Human CD3^+ cells with the purity above 95% were provided by LDEBIO company (Guangzhou, China). CD3^+ cells were plated in the 96-well plate with a density of 1 × 10^5 cells/well in 100 μL of DMEM medium containing 10% FBS. The 50 μL of anti-CD3 antibody and anti-CD28 antibody (aCD3 and aCD28, final concentration of 1 μg/mL for each) were added into 96-well plate. […] CellTiter-Glo (CTG) reagent was added into the wells to measure CD3^+ cell viability.

[4] = test system: B16-F10; assay: Cytotoxicity to tumor cells, MTT assay; assay type: cell-based; conditions: Mus musculus, 24 h, mean ± S.D (n = 3), read-out: IC50 B16F10
[5] = Pharmacokinetics in plasma and tumor from melanoma-bearing mice (LC-MS/MS); assay type: in vivo; conditions: single oral dose 60 mg/kg; for concentration at 1 h / concentration at 3 h: male, C57BL/6NCrl, mouse, plasma, po; for concentration at 1 h / concentration at 3 h / Concentration in Tumor: 60 mg/kg
Protocol: At 1h, 3h and 8h after the dosing, 5 mice were decapitated, respectively, for collecting plasma and tumor tissues. All plasma samples were centrifuged for 10 min at 3000 g, separated and stored at -20 °C for followed analysis. The tumor tissues were homogenated in water (w/v = 1:4). The LC-MS/MS system consisted of an Agilent 1100 series HPLC system (Agilent Technologies, Waldbronn, USA) and a TSQ Quantum Assess tandem mass spectrometer (Thermo Electron Corporation, San Jose, CA, USA) equipped with ESI ion source operation in the positive mode. Data acquisition and processing were accomplished using the Xcaliber workstation. The chromatography separation was performed on a Waters symmetry CLU columns (150 × 2.1 mm i.e., 3.5 am, Warders, USA) with the flow rate of 0.2 ml/min in isocratic elution. The mobile phase consisted of acetonitrile-methanol-water (50:30:20, v/v/v) containing 0.1 mm ammonium acetate and 0.01% glacial acetic acid. The selective reactions monitoring mode was used to detect the analyses. […] The spray voltage was 4 kv. Sheath gas and auxilinry gas were 30 and 5 psi, respectively. The capillary temperature was 350 °C and argon gas pressure was 1.5 milli-Torr.

[6] = test system: Human CD3+ cells; assay: IFN-γ secretion by human CD3+ cells in vitro (ELISA), rescue of PD-L1-mediated inhibition; assay type: cell-based; conditions: for IFN-γl: aCD3/aCD28 1 μg/mL + PD-L1 protein 10 nM, 72 h, single samples
Protocol: Human CD3^+ cells were plated in the 96-well plate with a density of 1 × 10^5 cells/well in 100 μL of DMEM containing 10% FBS. The 50 μL of aCD3 and aCD28 (final concentration of 1 μg/mL for each) were added into 96-well plate without or with 50 μL of human PD-L1 protein (final concentation of 10 nM). […] The supernatants were collected for detection of IFN-γ by using human IFN-γ ELISA Kit.

[7] = test system: CT26.WT; assay: Cytotoxicity to tumor cells, MTT assay; assay type: cell-based; conditions: Mus musculus, mean ± S.D (n = 3)
Protocol: Mouse melanoma cell line B16-F10 (ATCC® Number: CRL-6475™) and mouse cell line CT26.WT (TCM37) were obtained from Cell Culture Center of the Institute of Basic Medical Sciences, Chinese Academy of Medical Sciences. The cells were maintained in DMEM supplemented with 10% (v/v) heat-inactivated fetal bovine serum (FBS) in a humidified 5% CO2 atmosphere at 37 °C. Tumor cells were plated in 96-well plate with a density of 5 × 10^3 cells/well in 100 μL. […] The medium was subsequently discarded, and 150 μL of DMSO was added to dissolve the formazan crystals. The absorbance was measured at 570 nm using a Molecular Devices Spectra Max M5 (Molecular Devices, USA).

[8] = test system: IFN-γ; assay: Plasma IFN-γ level in melanoma-bearing mice (ELISA); assay type: in vivo
[9] = test system: B16-F10 tumors; assay: B16-F10 tumor isograft model, tumor growth; assay type: in vivo, mice; conditions: for Tumor volume / Tumor weight: single mice
[10] = treatment groups (30 and 60 mg/kg), P < 0.05, n = 6
[11] = 30 mg/kg oral twice daily, day 20

Compound: COc1nc(OCc2cccc(-c3ccccc3)c2C)ccc1CNCCNC(C)=O [PCC0208025, N-(2-{[2-Methoxy-6-(2-methyl-biphenyl-3-ylmethoxy)-pyridin-3-ylmethyl]-amino}-ethyl)-acetamide]
- IC50 [1]: 0.018 µM
- percentage of CD4^+CD25^+CD127^low/− (Treg) in tumor compared with the control group ([2]; 30 mg/kg and 60 mg/kg, P < 0.05, n = 6): significantly decreased
- percentage of CD3^+CD4^+ T cells in tumor compared with the control group ([2]; 60 mg/kg group, P < 0.05, n = 6): significant decreases
- percentage of CD3^+ T cells in tumor compared with the control group [2, 10]: markedly increased
- percentage of CD3^+CD8^+ T cells in tumor compared with the control group [2, 10]: markedly increased
- percentage of CD8^+IFN-γ^+ T cells in tumor compared with the control group [2, 10]: markedly increased
- % Treg of CD4^+ ([2]; 30 mg/kg, 30 mg/kg): 26.25% and 33.66% and 35.98% and 35.44% and 36.86% and 31.41%
- % CD3^+ of lymphocyte ([2]; 30 mg/kg, 30 mg/kg): 58.95% and 61.13% and 52.42% and 62.48% and 58.92% and 54.72%
- % CD4^+ of CD3^+ ([2]; 30 mg/kg, 30 mg/kg): 38.97% and 39.86% and 36.50% and 29.65% and 37.02% and 40.10%
- % CD8^+ of CD3^+ ([2]; 30 mg/kg, 30 mg/kg): 38.80% and 39.05% and 45.77% and 42.49% and 39.23% and 36.71%
- % CD8^+IFN-γ of CD3D^+CD8^+ ([2]; 30 mg/kg, 30 mg/kg): 27.98% and 25.40% and 24.84% and 24.39% and 22.29% and 22.23%
- % Treg of CD4^+ ([2]; 60 mg/kg, 60 mg/kg): 32.63% and 30.22% and 32.76% and 31.72% and 28.26%
- % CD3^+ of lymphocyte ([2]; 60 mg/kg, 60 mg/kg): 72.64% and 70.58% and 61.04% and 62.21% and 61.98% and 64.77%
- % CD4^+ of CD3^+ ([2]; 60 mg/kg, 60 mg/kg): 36.42% and 31.49% and 39.77% and 27.21% and 38.87% and 37.34%
- % CD8^+ of CD3^+ ([2]; 60 mg/kg, 60 mg/kg): 40.72% and 50.51% and 43.82% and 50.59% and 42.04% and 42.77%
- % CD8^+IFN-γ of CD3D^+CD8^+ ([2]; 60 mg/kg, 60 mg/kg): 30.80% and 35.94% and 30.46% and 29.24% and 28.35% and 27.49%
- IC50 [3]: 10.3 ± 1.3 µM
- IC50 [4]: 32.1 ± 2.3 µM
- concentration at 1 h ([5]; 1h, n = 5, read-out: average concentration in plasma): ~4.36 nM
- concentration at 1 h ([5]; 1h, single mice, read-out: Concentration in Plasma): 3.8 nM
- concentration at 3 h ([5]; 3h, n = 5, read-out: average concentration in plasma): ~3.94 nM
- concentration at 3 h ([5]; 3h, single mice, read-out: Concentration in Plasma): 4.16 nM
- average concentration in tumor ([5]; 1h, n = 5): about 160.7 nmol/kg
- Concentration in Tumor ([5]; 1h, single mice): 167.3 nmol/kg and 207.3 nmol/kg and 154.8 nmol/kg and 139.1 nmol/kg and 136.3 nmol/kg
- average concentration in tumor ([5]; 3h, n = 5): ~196.7 nmol/kg
- Concentration in Tumor ([5]; 3h, single mice): 185.3 nmol/kg and 206.5 nmol/kg and 218.5 nmol/kg and 178.7 nmol/kg
- average concentration in tumor ([5]; 8h, n = 5): ~127.3 nmol/kg
- Concentration in Tumor ([5]; 8h, single mice): 132.4 nmol/kg and 146.7 nmol/kg and 123.3 nmol/kg and 103.8 nmol/kg and 133.2 nmol/kg
- PD-L1-mediated inhibition of IFN-γ production ([6]; 0.01 to 1 μM, vs aCD3/aCD28 and PD-L1 group, P < 0.05, n = 6): markedly rescued
- IFN-γl ([6]; substance 0.1 mM (so in the source)): 768.3 pg/mL and 1056.6 pg/mL and 850.5 pg/mL and 945.6 pg/mL and 689.7 pg/mL and 789.4 pg/mL
- IFN-γl ([6]; substance 1 mM (so in the source)): 798.3 pg/mL and 824.3 pg/mL and 997.0 pg/mL and 723.5 pg/mL and 908.8 pg/mL and 857.7 pg/mL
- IFN-γl ([6]; substance 10 mM (so in the source)): 468.7 pg/mL and 398.5 pg/mL and 576.3 pg/mL and 435.3 pg/mL and 587.5 pg/mL and 523.4 pg/mL
- IC50 ([7]; 24 h): 21.9 ± 2.9 µM
- IC50 ([7]; 48 h): 15.3 ± 3.4 µM
- IFN-γ level in plasma ([8]; 60 mg/kg oral twice daily, day 20, single mice): 1678.5 pg/mL and 1589.6 pg/mL and 1467.7 pg/mL and 1256.8 pg/mL and 1756.2 pg/mL and 1476.1 pg/mL
- plasma IFN-γ levels compared with the control group ([8]; 30 and 60 mg/kg, P < 0.05, n = 6): markedly elevated
- tumor weight compared with the control group ([9]; 30 mg/kg and 60 mg/kg, P < 0.05, n = 8): significantly decreased
- tumor volumes compared with the control group ([9]; 30 mg/kg and 60 mg/kg, day 20, P < 0.05, n = 8): significantly decreased
- Tumor volume ([9]; 30 mg/kg oral twice daily, day 7): 99.3 mm^3 and 102.9 mm^3 and 86.2 mm^3 and 112.1 mm^3 and 129.3 mm^3 and 84.9 mm^3 and 90.7 mm^3 and 100.1 mm^3
- Tumor volume ([9]; 30 mg/kg oral twice daily, day 9): 94.0 mm^3 and 102.4 mm^3 and 154.1 mm^3 and 112.8 mm^3 and 131.0 mm^3 and 131.8 mm^3 and 105.3 mm^3 and 143.3 mm^3
- Tumor volume [9, 11]: 898.0 mm^3 and 1417.3 mm^3 and 1288.9 mm^3 and 1376.0 mm^3 and 1578.0 mm^3 and 1342.0 mm^3 and 1122.6 mm^3 and 879.0 mm^3
- Tumor weight [9, 11]: 1578.0 mg
- IR (inhibition rate of tumor growth) according to tumor weight ([9]; 60 mg/kg oral gavage twice daily, day 20): 50.1%
- Tumor volume ([9]; 60 mg/kg oral twice daily, day 7): 88.0 mm^3 and 80.2 mm^3 and 120.2 mm^3 and 108.0 mm^3 and 102.8 mm^3 and 96.6 mm^3 and 115.1 mm^3 and 94.6 mm^3
- Tumor weight ([9]; 60 mg/kg oral twice daily, day 20): 1678.4 mg
